Results reported in US20240374628A1 (Whispergenics. Inc., priority 2021, published 2024).

What was measured:
BIRC5 expression = test: Cardiac glycosides that inhibit BIRC5 expression in colorectal cancer; assay type: cell-based
HT29 = test: CellTiter-Glo cell viability, HT29; assay type: cell-based, human; details: 48 h, dose curve 12.5 nM-800 nM, FIG. 1
Procedure: (§1) Cell lines: Human colon cancer cell lines CCD-18Co and Caco2 (American Type Culture Collection [ATCC], Bethesda, MD) were maintained in Eagle's Minimum Essential Medium (Thermo Fisher Scientific, MA) supplemented with 100,000 U/L of penicillin, 100,000 μg/L of streptomycin, and 20% fetal bovine serum (FBS). HT29 (American Type Culture Collection [ATCC], Bethesda, MD) was maintained in McCoy's 5a Medium Modified (Thermo Fisher Scientific, MA) supplemented with 100,000 U/L of penicillin, 100,000 μg/L of streptomycin, and 10% fetal bovine serum (FBS). The following cells were also tested: MDA 231 Breast Cancer Cells, U87 Glioblastoma Cells, U251 Glioblastoma Cells and Dul45 Prostate Cancer Cells. All cells were maintained in Eagles Medium as described above.
(§2) The cells were subjected to cell viability assays using The CellTiter-Glo luminescent cell viability kit (Promega, catalog number: G7570). luminescence was measured using microplate luminometer (luminoskan™ ascent, Thermo-Fisher Scientific, MA). Background luminescence was measured in medium without cells and subtracted from experimental values.

[1] = tested on: human colon cancer cell lines (CCD-18Co, Caco2, HT29); test: CellTiter-Glo cell viability, three human colon cancer cell lines; assay type: cell-based; details: dose-response curves, 48 h, FIGS. 1-3
Procedure: as §1, with “The following cells were also tested: MDA 231 Breast Cancer Cells, U87 Glioblastoma Cells, U251 Glioblastoma Cells and Dul45 Prostate Cancer Cells.” left out
as §2

Caco2 = test: CellTiter-Glo cell viability, Caco2; assay type: cell-based, human; details: 48 h, dose curve 625 μM-40000 μM, FIG. 3
Procedure: as §1, §2

SMILES	inhibition of BIRC5 expression (BIRC5 expression)	sensitivity of cell viability (HT29)	cell viability, single drug alone [1]	sensitivity of cell viability (Caco2)
C[C@]12CC[C@H](O)C[C@H]1CC[C@@H]1[C@@H]2CC[C@]2(C)[C@@H](C3=CC(=O)OC3)CC[C@]12O [Digitoxigenin]	inhibit BIRC5 expression	–	–	–
C[C@H]1O[C@@H](O[C@H]2[C@@H](O)C[C@H](O[C@H]3[C@@H](O)C[C@H](O[C@H]4CC[C@@]5(C)[C@H](CC[C@@H]6[C@@H]5C[C@@H](O)[C@]5(C)[C@@H](C7=CC(=O)OC7)CC[C@]65O)C4)O[C@@H]3C)O[C@@H]2C)C[C@H](O)[C@@H]1O [Digoxin]	inhibit BIRC5 expression	very sensitive	reduced cell viability to varying degrees	–
CC(=O)O[C@H]1C[C@H](O[C@H]2[C@@H](O)C[C@H](O[C@H]3[C@@H](O)C[C@H](O[C@H]4CC[C@@]5(C)[C@H](CC[C@@H]6[C@@H]5C[C@@H](O)[C@]5(C)[C@@H](C7=CC(=O)OC7)CC[C@]65O)C4)O[C@@H]3C)O[C@@H]2C)O[C@H](C)[C@H]1O[C@@H]1O[C@H](CO)[C@@H](O)[C@H](O)[C@H]1O [Lanatoside C]	inhibit BIRC5 expression	–	–	–
CN(C)C(=N)N=C(N)N [Metformin]	–	–	reduced cell viability to varying degrees	sensitive
C[C@@H]1O[C@@H](O[C@H]2C[C@@H](O)[C@]3(CO)[C@H]4[C@H](O)C[C@]5(C)[C@@H](C6=CC(=O)OC6)CC[C@]5(O)[C@@H]4CC[C@]3(O)C2)[C@H](O)[C@H](O)[C@H]1O [Ouabain]	inhibit BIRC5 expression	–	–	–
C[C@]12CC[C@H](O)C[C@H]1CC[C@@H]1[C@@H]2CC[C@]2(C)[C@@H](c3ccc(=O)oc3)CC[C@]12O [bufalin]	inhibit BIRC5 expression	–	–	–
